Measurements: patent EP0108147B1, “Use of a protoberberine alkaloid and composition containing same” (MAROKO, Peter R., priority 1982, dated 1983)

How the values were obtained:
Type in all cases: in vivo
[1] = test system: dogs; assay: Myocardial oxygen consumption (MV02) and epicardial ST segment elevation experiments; settings: for myocardial oxygen consumption and myocardial injury: dogs, varying dosages
Excerpt: These changes were due to lower. myocardial oxygen consumption during the occlusion with berberine treatment. […] This is quite an advanageous therapeutic combination of properties which further distinguish the compounds used in the invention from the conventional drugs.

[2] = test system: Mongrel dogs; assay: Protocol Z: continuous 35 minute infusion in anesthetized open-chest dogs, constant left ventricular pressure; settings: for reduction of calculated peripheral resistance: 0.2 mg/Kg/min
Procedure: Mongrel dogs weighing between 15 and 25 kg were anesthetized with intravenous sodium thiamylal (20 mg/kg initially with additional doses given as needed). The dogs were intubated endotracheally, and respiration was maintained by a Harvard respirator. The chest was then opened in the fourth left intercostal space and the heart suspended temporarily in a pericardial cradle.
Aortic pressures were recorded through a polyethylene cannula introduced through the carotid artery (Statham P23 Db pressure transducer) and electrocardiogram (lead aVF) were recorded throughout the experiment on a polygraph (Gould Instruments). Another polyethylene cannula was placed in the left atrium for measurement of atrial pressure (Statham P23 Db pressure transducer). An electromagnetic flowmeter (Biotonix Laboratories) was placed around the ascending aorta and the aortic flow was recorded on a polygraph. Two catheters were inserted into the left ventricle through a femoral artery.
The first ("pigtail") served as a reference, while the second (Millar microtip transducer catheter) was connected through a Millar transducer (Millar Instruments, Houston, Texas) to the polygraph, where both left ventricular pressure curves were recorded simultaneously. The left ventricular end diastolic pressure was recorded separately through a Millar catheter. The first derivative of the left ventricular pressure (dP/dt) was obtained by electronic differentiation of the left ventricular pulse recorded through the Millar catheter.
A reservoir of blood was connected with the femoral artery in order to maintain constant left ventricular pressure during the experiment. In this protocol, similarly to protocol M, systemic arterial pressure was maintained constant in order to have accurate measurements of dP/dt which represent well left ventricular contractility when the systolic pressure is maintained constant. However, calculated total peripheral resistance will be higher (an underestimation of the fall). After stabilization of hemodynamics as reflected by continuously monitored parameters for 15 minutes, the substances to be studied were infused intravenously using a Harvard infusion pump. Registrations were made every 5 minutes at a paper speed of 200 mm/second, while all the parameters were recorded constantly at a speed of 2 mm/second. The dogs were randomly assigned to several groups: • Group a) Control - in these dogs a solution of 5% dextrose in water was infused in the same quantity as in the berberine treated animals (n = 7).
In all berberine, berberrubine coreximine and tetrahydropalmatine groiups the compounds were infused at constant rate for 35 minutes and the data analyzed at 5 minute intervals. • Group b) Berberine 0.7 mg/Kg/min (n = 10). • Group c) Berberine 0.2 mg/Kg/min (n = 7). • Group d) Berberine 0.02 mg/Kg/min (n = 7). • Group e) Berberrubine 0.2 mg/Kg/min (n = 7). • Group f) Tetrahydropalmatine 0.2 mg/Kg/min (n = 4). • Group g) Coreximine 0.2 mg/Kg/min (n = 8).
Therefore, group b, c and d were used to analyze the various effects of continuous infusion of berberine and its dose response and groups e and f and g used to examine the effects of these three other proberberines. Moreover, their effects were compared to the berberine treated dogs with the same dose (i.e. Group c).

[3] = test system: anesthetized closed chest dogs; assay: Association of ouabain and berberine on contractility (LV dP/dt), constant systolic pressure; settings: for increase of LV dP/dt, of the initial LV dP/dt: berberine 0.7 mg/Kg/min after ouabain; for increases in dP/dt: only berberine 0.7 mg/Kg/min without digitalis
Procedure: In anesthetized closed chest dogs the systolic arterial pressure was maintained constant with a reservoir full of heparinized blood (as in protocol "M" and "Z" described above) and a "pigtail" and Millar catheter were introduced into the left ventricular cavity (as in protocol "Z" and "HV", described above). All data was recorded on 8 channel polygraph (Gould Instruments) with a paper speed of 200 mm/s when necessary and at 2 mm/s constantly.

[4] = test system: healthy adult mongrel dogs; assay: Protocol M: hemodynamics in anesthetized open-chest dogs, systolic arterial pressure held constant
Procedure: The experimental work was carried out as follows: Twelve healthy adult mongrel dogs (20-30 kg) of both sexes were anesthetized with intravenous sodium pentobarbital (25 mg/kg). A left thoractomy was performed through the fifth intercostal space. Catheters were placed to record left atrial, left ventricular and aortic pressures. Descending aortic blood flow was measured with an electromagnetic flowmeter. Heart rate (HR) was calculated using electocardiographic recording, lead aVF. All parameters were recorded on a Gould polygraph. The dogs were randomly assigned either to the control or to the treated group. Six of the dogs were in the control group and these dogs were infused with a placebo, namely the vehicle used for the drug tested. […] Berberine (as the hydrochloride salt) was administered to six anesthesized dogs (barbiturate). The dose was 0.7 mg/kg/min. intravenously infused durng 5 minutes. This dose was repeated after 45 minutes. Systolic arterial pressure was maintained at a constant rate using a reservoir full of blood under constant pressure connected to the femoral artery. Whenever the arterial pressure was not maintained constant in the work reported (and allowed to drop) appropriate reference is made herein to that fact. Systemic arterial pressure was maintained at a constant rate in order to obtain accurate dP/dt since this parameter is of extreme importance in these studies. However, as a consequence, the vascular peripheral resistence, when described as a function of mean aortic pressure, was higher than if the pressure would be allowed to fall with the administration of the compound. Therefore, the reduction calculated total peripheral resistence is underestimated. Also dP/dt is less increased when bradycardia (lower heart rate) occurs and since heart rate was allowed to fall (which is the effect of the drug), the increase in dP/dt reported here is actually underestimated as compared to preparations in which heart rate would have been maintained constant. In Tables I to IX the results of these experiments are presented. The first two lines presents the studied parameter in absolute values, the third line representing the "t" values used in Student's t test for group observation, between the treated and control groups. The fourth line presents the level of significance. The next four lines give the values as changes (Δ) from the value before treatment to the value after treatment. The third set of values represent the changes in percent. The last two sets of two lines represent the paired t-test values and the derived p values obtained by analyzing the data from before the infusion of the drug (last set of two lines) or the placebo (next to last set of two lines), in the subsequent time interval (i.e. after infusion). Therefore, each dog serves as his own control, thus increasing the statistical value of the tests. […] Thus, the calculated peripheral resistance increased by 18% (P <0.02).

[5] = 0.7 mg/Kg/min, after 35 minutes
[6] = 0.7 mg/Kg/min, over the control

COc1ccc2cc3[n+](cc2c1OC)CCc1cc2c(cc1-3)OCO2 [berberine]
epicardial ST segment elevations ([1]; after coronary artery occlusion): did not change them | myocardial injury (epicardial ST segment elevations) ([1]; consecutive occlusions, 0.2 mg/kg/min, vs control occlusion, pilot experiments): less myocardial injury | myocardial oxygen consumption ([1]; dogs with acute left ventricular failure, effect greater than that of ouabain): significantly reduced | myocardial oxygen consumption ([1]; dogs without coronary artery occlusion): reduction in myocardial oxygen consumption | mycardial oxygen consumption (MV02) ([1]; non-failing heart, 0.02 mg/kg.min): did not change | increase in dP/dt ([2]; 0.002 mg/Kg/min, one additional dog): 20% | increase of pulse pressure ([2]; 0.02 mg/Kg/min (group d)): 18.5 ± 10% | increase in dP/dt ([2]; 0.02 mg/Kg/min, after 35 minutes): 35.8 ± 8.2% | reduction of calculated peripheral resistance [2]: over 30% | Stroke volume (SV) ([2]; 0.2 mg/Kg/min (Table XIII)): increased significantly | fall in diastolic arterial pressure (widening in the pulse-pressure, PP) relative to the other three drugs ([2]; 0.2 mg/Kg/min (Table XIII)): more than twice as large | fall of heart rate (HR) ([2]; 0.2 mg/Kg/min (Table XIII)): 16-17% | increase of aortic flow (stroke volume) ([2]; 0.2 mg/Kg/min (group c)): 53.6 ± 17.7% | reduction of heart rate ([2]; 0.7 mg/Kg/min): 32 ± 3% | increase in LV dP/dt ([2]; 0.7 mg/Kg/min, after 5 minutes): 35% | decrease of calculated total peripheral resistance [2, 5]: 46.8 ± 9.3% | increase of aortic pulse-pressure [2, 5]: 125 ± 19% | increase of peak aortic blood flow ([2]; 0.7 mg/Kg/min, after 35 minutes, ascending aorta): 73% | increase in LV dP/dt ([2]; 0.7 mg/Kg/min, at 35 minutes): 43.2 ± 7.0% | increase in cardiac output [2, 6]: 75 ± 29% | increase in stroke volume (calculated by planimetry) [2, 6]: 169 ± 36% | fall in heart rate ([2]; at the smaller doses): no significant fall in heart rate | QTc interval ([2]; dog, in vivo): overall increase | P-R interval ([2]; i.v. for 60' (0.7 mg/Kg/min), total 42 mg/Kg): does not increase the P-R interval | QRS complex or interval ([2]; over the period of i.v. administration (Fig. XVII)): not increased | average increase of QTc ([2]; when dP/dt is increased by 43%): 16% | increase of LV dP/dt, of the initial LV dP/dt ([3]; 5 minutes): 87±10% | increase of LV dP/dt, of the initial LV dP/dt ([3]; 10 minutes): 82±13% | increase of LV dP/dt, of the initial LV dP/dt ([3]; 15 minutes): 87±13% | increase of LV dP/dt, of the initial LV dP/dt ([3]; 20 minutes): 95±16% | increase of LV dP/dt, of the initial LV dP/dt ([3]; 25 minutes): 96±16% | increase of LV dP/dt, of the initial LV dP/dt ([3]; 30 minutes): 94±14% | combined effect with ouabain on contractility ([3]; dog, in vivo): more than additive but synergistic | increases in dP/dt ([3]; 5 minutes): 30±4% | increases in dP/dt ([3]; 10 minutes): 36±3% | increases in dP/dt ([3]; 15 minutes): 39±3% | increases in dP/dt ([3]; 20 minutes): 42±5% | increases in dP/dt ([3]; 25 minutes): 39±5% | increases in dP/dt ([3]; 30 minutes): 40±7% | diastolic aortic pressure (DAP) ([4]; after treatment, from 84 before): 62 mmHg | increase in peak blood flow velocity ([4]; descending aorta): ~50% | arrhythmias during the experimental period ([4]; dog, in vivo): did not develop any type of arrhythmias | drop of DAP ([4]; dog, in vivo): 20 mmHg | reduction in HR ([4]; dog, in vivo): 9 beats/min | difference in dP/dt between the control group and the berberine-treated group ([4]; end of experiment): 50% | dP/dt maximum of the left ventrical ([4]; end of experiment, 0.7 mg/kg/min i.v. 5 min, repeated after 45 min, control 2009 ± 132): 2974 ± 121 mmHg/s | increase in the acceleration of blood flow (dF/dt) ([4]; first vs last column of Table III): ~65% | mean left artrial pressure (LAP) ([4]; initial 1 or 2 mmHg): no change | left ventricular end diastolic pressure (LVEDP) ([4]; normal, averaging 3 mmHg): no change | increase of dF/dt ([4]; summary statement): at least 50% | increase of dP/dt ([4]; summary statement): at least 50%

COc1cc2c(cc1O)C[C@H]1c3cc(O)c(OC)cc3CCN1C2 [coreximine]
myocardial oxygen consumption and myocardial injury [1]: reduction on myocardial oxygen consumption and less myocardial injury than the control | reduction of calculated peripheral resistance [2]: did not show that property to that pronounced degree | Stroke volume (SV) ([2]; 0.2 mg/Kg/min (Table XIII)): increased significantly | fall of heart rate (HR) ([2]; 0.2 mg/Kg/min (Table XIII)): 16-17% | result in the association with ouabain ([3]; dog, in vivo): perform in the same manner | result of the corresponding Protocol M experiments (dP/dt, peak blood flow, acceleration of flow, heart rate, diastolic pressure) ([4]; dog, in vivo): like results are obtained

COc1ccc2cc3[n+](cc2c1O)CCc1cc2c(cc1-3)OCO2 [berberrubine]
myocardial oxygen consumption and myocardial injury [1]: reduction on myocardial oxygen consumption and less myocardial injury than the control | reduction of calculated peripheral resistance [2]: did not show that property to that pronounced degree | Stroke volume (SV) ([2]; 0.2 mg/Kg/min (Table XIII)): just slightly (and not statistically significantly) | fall of heart rate (HR) ([2]; 0.2 mg/Kg/min (Table XIII)): 16-17% | result in the association with ouabain ([3]; dog, in vivo): perform in the same manner | result of the corresponding Protocol M experiments (dP/dt, peak blood flow, acceleration of flow, heart rate, diastolic pressure) ([4]; dog, in vivo): like results are obtained
